According to US20230143612A1 (Arbutus Biopharma Corporation, priority 2020, published 2023):

The molecules below were run against PD-L1 His protein / PD-1 Fc protein (Homo sapiens, UniProt Q9NZQ7) (assay: HTRF Assay (PD-1/PD-L1 interaction)). Conditions: PD-L1 His 6 nM, PD-1 Fc 6 nM.
Assay type: binding
Method in brief: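 Compounds tested from 20 μM down to 0.001 μM (3-fold) against 6 nM PD-L1 His and 6 nM PD-1 Fc, 15 min room temperature incubation. Detection after 1 h at room temperature with Tb cryptate anti-6HIS and XL665 anti-human IgG reagents (mixture at 0.35 nM and 6.7 nM), HTRF signal.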

Chain of PD-L1 His protein / PD-1 Fc protein (Q9NZQ7 19-238 limits assumed): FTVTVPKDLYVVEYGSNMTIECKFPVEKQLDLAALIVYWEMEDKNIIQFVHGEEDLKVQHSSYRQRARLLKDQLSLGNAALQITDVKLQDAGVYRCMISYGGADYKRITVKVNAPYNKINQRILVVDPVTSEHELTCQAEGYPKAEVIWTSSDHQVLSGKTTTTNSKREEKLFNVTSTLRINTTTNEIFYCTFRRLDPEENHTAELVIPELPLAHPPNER

First: COc1nc(-c2cccc(-c3cccc(-c4ccn5c(=O)c(CNC[C@@H]6CCC(=O)N6)cnc5c4)c3Cl)c2Cl)ccc1CN[C@H]1CCOC[C@@H]1O [Example 174, 8-(2,2′-Dichloro-3′-(5-((((3R,4S)-3-hydroxytetrahydro-2H-pyran-4-yl)amino)methyl)-6-methoxypyridin-2-yl)-[1,1′-biphenyl]-3-yl)-3-(((((S)-5-oxopyrrolidin-2-yl)methyl)amino)methyl)-4H-pyrido[1,2-a]pyrimidin-4-one]
Second: COc1nc(-c2cccc(-c3cccc(-c4ccn5c(=O)c(CNC[C@@H]6CCC(=O)N6)cnc5c4)c3Cl)c2Cl)ccc1CN1CC[C@H](O)C1 [Example 175, 8-(2,2′-Dichloro-3′-(5-(((S)-3-hydroxypyrrolidin-1-yl)methyl)-6-methoxypyridin-2-yl)-[1,1′-biphenyl]-3-yl)-3-(((((S)-5-oxopyrrolidin-2-yl)methyl)amino)methyl)-4H-pyrido[1,2-a]pyrimidin-4-one]
The IC50 of the first is 8-fold higher: 0.8 nM for the first, 0.1 nM for the second. The second is the more potent here.

Compared with `COc1c(CNC[C@@H]2CCC(=O)N2)ccc2nc(-c3cccc(-c4cccc(-c5ccn6c(=O)c(CNC[C@@H]7CCC(=O)N7)cnc6c5)c4Cl)c3Cl)ccc12` [Example 176, 8-(2,2′-Dichloro-3′-(5-methoxy-6-(((((S)-5-oxopyrrolidin-2-yl)methyl)amino)methyl)quinolin-2-yl)-[1,1′-biphenyl]-3-yl)-3-(((((S)-5-oxopyrrolidin-2-yl)methyl)amino)methyl)-4H-pyrido[1,2-a]pyrimidin-4-one], `COc1nc(-c2cccc(-c3cccc(-c4cc(C)n5c(=O)c(CNC[C@@H]6CCC(=O)N6)cnc5c4)c3Cl)c2Cl)ccc1CNC[C@@H]1CCC(=O)N1` [Example 183, 8-(2,2′-Dichloro-3′-(6-methoxy-5-(((((S)-5-oxopyrrolidin-2-yl)methyl)amino)methyl)pyridin-2-yl)-[1,1′-biphenyl]-3-yl)-6-methyl-3-(((((S)-5-oxopyrrolidin-2-yl)methyl)amino)methyl)-4H-pyrido[1,2-a]pyrimidin-4-one] is 5.7-fold lower in IC50: 250 nM for the first, 44 nM for the second. The second is the more potent here.

Going from `COc1nc(/C=C2\CCc3c2cccc3-c2cccc(-c3ccn4c(=O)c(CNC[C@@H]5CCC(=O)N5)cnc4c3)c2Cl)c(Cl)cc1CNC[C@@H]1CCC(=O)N1` [Example 177, 8-(2-Chloro-3-((E)-1-((3-chloro-6-methoxy-5-(((((S)-5-oxopyrrolidin-2-yl)methyl)amino)methyl)pyridin-2-yl)methylene)-2,3-dihydro-1H-inden-4-yl)phenyl)-3-(((((S)-5-oxopyrrolidin-2-yl)methyl)amino)methyl)-4H-pyrido[1,2-a]pyrimidin-4-one] to `COc1nc(-c2cccc(-c3cccc(-c4ccn5c(=O)c(CNCC(=O)O)cnc5c4)c3Cl)c2Cl)ccc1CNC[C@@H]1CCC(=O)N1` [Example 189, (S)-((8-(2,2′-Dichloro-3′-(6-methoxy-5-((((5-oxopyrrolidin-2-yl)methyl)amino)methyl)pyridin-2-yl)-[1,1′-biphenyl]-3-yl)-4-oxo-4H-pyrido[1,2-a]pyrimidin-3-yl)methyl)glycine], the IC50 falls from 5 nM to 0.1 nM (50-fold). The second is the more potent here.

Compared with `COc1nc(-c2cccc(-c3cccc(-c4ccn5c(=O)c(CNC[C@@H]6CCC(=O)N6)cnc5c4)c3Cl)c2Cl)ccc1C1=NCC(O)CN1` (stereo partly drawn) [Example 178, 8-(2,2′-Dichloro-3′-(5-(5-hydroxy-1,4,5,6-tetrahydropyrimidin-2-yl)-6-methoxypyridin-2-yl)-[1,1′-biphenyl]-3-yl)-3-(((((S)-5-oxopyrrolidin-2-yl)methyl)amino)methyl)-4H-pyrido[1,2-a]pyrimidin-4-one], `COc1nc(-c2cccc(-c3cccc(-c4ccn5c(=O)c(CN(C)CC(=O)O)cnc5c4)c3Cl)c2Cl)ccc1CNC[C@@H]1CCC(=O)N1` [Example 187, (S)—N-((8-(2,2′-Dichloro-3′-(6-methoxy-5-((((5-oxopyrrolidin-2-yl)methyl)amino)methyl)pyridin-2-yl)-[1,1′-biphenyl]-3-yl)-4-oxo-4H-pyrido[1,2-a]pyrimidin-3-yl)methyl)-N-methylglycine] is 35-fold lower in IC50: 3.5 nM for the first, 0.1 nM for the second.

First: COc1nc(-c2cccc(-c3cccc(-c4ccn5c(=O)c(CNC[C@H](C)O)c(C)nc5c4)c3Cl)c2Cl)ccc1CNC[C@H](C)O [Example 181, 8-(2,2′-Dichloro-3′-(5-((((S)-2-hydroxypropyl)amino)methyl)-6-methoxypyridin-2-yl)-[1,1′-biphenyl]-3-yl)-3-((((S)-2-hydroxypropyl)amino)methyl)-2-methyl-4H-pyrido[1,2-a]pyrimidin-4-one]
Second: COc1nc(-c2cccc(-c3cccc(-c4ccn5c(=O)c(CNC[C@H](C)O)cnc5c4)c3Cl)c2Cl)ccc1CNC[C@H](C)O [Example 185, 8-(2,2′-Dichloro-3′-(5-((((S)-2-hydroxypropyl)amino)methyl)-6-methoxypyridin-2-yl)-[1,1′-biphenyl]-3-yl)-3-((((S)-2-hydroxypropyl)amino)methyl)-4H-pyrido[1,2-a]pyrimidin-4-one]
The IC50 of the first is 3.2-fold higher: 3.8 nM for the first, 1.2 nM for the second.

`COc1nc(-c2cccc(-c3cccc(-c4ccn5c(=O)c(CNCCC(=O)O)cnc5c4)c3Cl)c2Cl)ccc1CNC[C@@H]1CCC(=O)N1` [Example 182, (S)-3-(((8-(2,2′-Dichloro-3′-(6-methoxy-5-((((5-oxopyrrolidin-2-yl)methyl)amino)methyl)pyridin-2-yl)-[1,1′-biphenyl]-3-yl)-4-oxo-4H-pyrido[1,2-a]pyrimidin-3-yl)methyl)amino)propanoic acid] and `COc1nc(-c2cccc(-c3cccc(-c4ccn5c(=O)c(CNC(C)(C)C(=O)O)cnc5c4)c3Cl)c2Cl)ccc1CNC[C@@H]1CCC(=O)N1` [Example 184, (S)-2-(((8-(2,2′-Dichloro-3′-(6-methoxy-5-((((5-oxopyrrolidin-2-yl)methyl)amino)methyl)pyridin-2-yl)-[1,1′-biphenyl]-3-yl)-4-oxo-4H-pyrido[1,2-a]pyrimidin-3-yl)methyl)amino)-2-methylpropanoic acid] are the same in IC50: 0.1 nM for the first, 0.1 nM for the second.

Compared with `COc1nc(-c2cccc(-c3cccc(-c4ccn5c(=O)c(CNC[C@@H](C)O)cnc5c4)c3Cl)c2Cl)ccc1CNC[C@@H](C)O` [Example 186, 8-(2,2′-Dichloro-3′-(5-((((R)-2-hydroxypropyl)amino)methyl)-6-methoxypyridin-2-yl)-[1,1′-biphenyl]-3-yl)-3-((((R)-2-hydroxypropyl)amino)methyl)-4H-pyrido[1,2-a]pyrimidin-4-one], `COc1nc(-c2cccc(-c3cccc(-c4ccn5c(=O)c(CN6CC(C(=O)O)C6)cnc5c4)c3Cl)c2Cl)ccc1CNCCO` [Example 188, 1-((8-(2,2′-Dichloro-3′-(5-(((2-hydroxyethyl)amino)methyl)-6-methoxypyridin-2-yl)-[1,1′-biphenyl]-3-yl)-4-oxo-4H-pyrido[1,2-a]pyrimidin-3-yl)methyl)azetidine-3-carboxylic acid] is 64-fold lower in IC50: 6.4 nM for the first, 0.1 nM for the second.

With `COc1nc(-c2cccc(-c3cccc(-c4ccn5c(=O)c(CN(C)[C@@H](C)C(=O)O)cnc5c4)c3Cl)c2Cl)ccc1CNC[C@@H]1CCC(=O)N1` [Example 190, N-((8-(2,2′-Dichloro-3′-(6-methoxy-5-(((((S)-5-oxopyrrolidin-2-yl)methyl)amino)methyl)pyridin-2-yl)-[1,1′-biphenyl]-3-yl)-4-oxo-4H-pyrido[1,2-a]pyrimidin-3-yl)methyl)-N-methyl-L-alanine] the IC50 was 0.1 nM.
